This is an account of results in ChEMBL document CHEMBL5729039, “Macrocyclic fluorine substituted indole derivatives” (2022).

The structures appear in SMILES notation. Where only a bound is given, the exact number is not on record here.

Experiment [1] addresses Apoptosis regulator Bcl-2 (Homo sapiens, UniProt P10415). In words: (§1) Biological Assay 2: BCL-2 Assay: In the assay 11 different concentrations of each compound (0.1 nM, 0.33 nM, 1.1 nM, 3.8 nM, 13 nM, 44 nM, 0.15 μM, 0.51 μM, 1.7 μM, 5.9 μM and 20 μM) were typically measured as duplicates in the same microtiter plate. For that, 100-fold concentrated DMSO solutions were prepared by serial dilutions (1:3.4) of a 2 mM stock solution in a clear, 384-well microtiter plate (Greiner Bio-One, Frickenhausen, Germany). From there, 50 nl were transferred in a dark test plate (Greiner Bio-One, Frickenhausen, Germany). The assay was initiated by addition of 2 μl of a 2,5-fold concentrated His-BCL-2 solution (usually for a 1 nM end concentration in 5 μl reaction volume) in aqueous assay buffer [50 mM Tris/HCl pH 7, 100 mM sodium chloride (NaCl), 50 mM potassium fluoride (KF), 0.005% Tween-20, 2 mM DTT, 0.1% bovine gamma globulin (BGG)] to the compounds in the assay plate. This was followed by a 10-minute incubation step at 22° C. for pre-equilibration of the putative complex between His-BCL-2 and the compounds. After that, 3 μl of a 1.67-fold concentrated solution (in assay buffer) consisting of Bad BH3-derived peptide (1 nM end concentration) and TR-FRET detection reagents [1.67 nM anti-His-Eu cryptate and 1.67 nM streptavidin-XL665 (both from Cisbio Bioassays, Codolet, France)], were added.

A further experiment addresses Bcl-2-like protein 1 (Homo sapiens, UniProt Q07817). The experiment is described as §1, with “Biological Assay: BCL-XL Assay: In” for “Biological Assay 2: BCL-2 Assay: In”, “2,5-fold concentrated His-BCL-XL solution (usually” for “2,5-fold concentrated His-BCL-2 solution (usually”, “(NaCl), […]” for “(NaCl), 50 mM potassium fluoride”, “complex between His-BCL-XL and the” for “complex between His-BCL-2 and the”.

Bcl-2-like protein 1, sequence (Q07817 whole entry): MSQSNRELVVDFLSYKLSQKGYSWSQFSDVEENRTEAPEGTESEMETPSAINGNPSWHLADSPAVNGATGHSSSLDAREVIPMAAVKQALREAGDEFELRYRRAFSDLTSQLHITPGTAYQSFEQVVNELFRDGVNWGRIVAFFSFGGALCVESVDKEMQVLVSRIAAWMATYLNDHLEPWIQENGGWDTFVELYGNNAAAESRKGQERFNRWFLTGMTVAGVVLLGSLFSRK
Apoptosis regulator Bcl-2, sequence (P10415 whole entry): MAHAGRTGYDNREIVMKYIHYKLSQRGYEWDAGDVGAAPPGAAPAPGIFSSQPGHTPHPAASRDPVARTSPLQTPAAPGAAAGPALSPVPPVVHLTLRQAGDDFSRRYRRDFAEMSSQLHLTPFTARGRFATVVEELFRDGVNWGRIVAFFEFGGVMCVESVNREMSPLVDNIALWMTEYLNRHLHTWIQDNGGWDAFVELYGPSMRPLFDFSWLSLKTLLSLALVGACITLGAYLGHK

Turning to `Cc1c2c(nn1C)C[N+](C)(C)CCCCn1c(C(=O)O)c(CCCOc3cccc4ccccc34)c3ccc(F)c-2c31`, the IC50 (in experiment [1]; on Bcl-2-like protein 1) was more than 20 µM in each case.
With `CCc1c2c(nn1C)COCCCCn1c(C(=O)O)c(CCCOc3ccc(F)c4ccccc34)c3ccc(F)c-2c31`, the IC50 (in experiment [1]; on Bcl-2-like protein 1) was more than 20 µM each time.
For the compound `CCc1nn(C)c2c1-c1c(F)ccc3c(CCCOc4cccc5cc(F)ccc45)c(C(=O)O)n(c13)CCCCOC2`, the half-inhibitory concentration (IC50) (in experiment [1]; at Bcl-2-like protein 1) was more than 20 µM throughout.
As to `Cc1c2c(nn1C)COCCCCn1c(C(=O)O)c(CCCOc3cccc4ccccc34)c3ccc(F)c-2c31`, the IC50 (in experiment [1]; against Bcl-2-like protein 1) was more than 20 µM in each case.
For the compound `Cc1c2c(nn1C)COCCCCn1c(C(=O)O)c(CCCOc3cccc4cc(F)ccc34)c3ccc(F)c-2c31`, the IC50 (in experiment [1]; against Bcl-2-like protein 1) was more than 20 µM throughout.
On to `CCc1c2c(nn1C)COCCCCn1c(C(=O)O)c(CCCOc3cccc4ccccc34)c3ccc(F)c-2c31`, for which the IC50 (in experiment [1]; on Bcl-2-like protein 1) was more than 20 µM throughout.
